Several values for one entry are separate records, joined by “and”; a condition that tells them apart may be missing. Identical values can stand only once.
How the values were obtained:
[1] = system: BRCA1-deleted mammary tumors of MMTV-CreBRCA1^f/fp53+/− mice; assay: 18FDG PET-CT scanning of tumor-bearing mice; type: in vivo, mouse; conditions: for FDG-uptake of treated tumors: Compound B-treated versus Compound A or combination
Experimental: All animal experiments were conducted in accordance with IACUC-approved protocols at Beth Israel Deaconess Medical Center, Boston, and at the University of Vall d'Hebron, Barcelona, Spain. Female MMTV-CreBRCA1^f/fp53+/− mice were obtained by breeding BRCA1 conditional knockout mice from the NIH repository (01XC8, strain C57BL/6) (Xu et al. Nat. Genet., 22: 37-43, 1999); with MMTV-Cre (Jackson Laboratory B6129-TgN(MMTV-Cre)4Mam) (Wagner et al. Nucleic Acids Res., 25: 4323-4330, 1997) and p53 knockout (Taconic Farms, P53N12-M, C57BL/6) (Donehower et al. Nature, 356: 215-221, 1992). At the time of the study, mice had been inbred for 4 years (>7 generations). The floxed or wild type status of Brca1, the presence of the MMTV-Cre transgene and the p53 heterozygosity were determined by PCR. Mice were examined for the occurrence of tumors twice weekly. When tumormetrics were performed, the length and width of the tumor was determined using calipers, and the tumor volume was determined (width^2×length/2). Tumor volume was used as a measure of growth and was recorded as ratio to tumor volume at diagnosis. Tumor doubling times were calculated using the functions of the best fit curves for all data points in each treatment modality. 5-(2,6-dimorpholinopyrimidin-4-yl)-4-(trifluoromethyl)pyridin-2-amine (Compound A) was resuspended in 5% Methylcellulose solution (Fluka) and administered via oral gavage at 50 mg/kg/day or 30 mg/kg/day. 4-[[3-[4-(cyclopropanecarbonyl)piperazine-1-carbonyl]-4-fluorophenyl]methyl]-2H-phthalazin-1-one (Compound B) was resuspended for intraperitoneal administration as described (Rottenberg et al. Proc. Natl. Acad. Sci. USA., 105: 17079-17084, 2008) and dosed at 50 mg/kg/day. For patient-derived tumor grafts consent for tumor use was obtained from patients under a protocol approved by the Vall d'Hebron Hospital Clinical Investigation Ethical Committee. Tumors were subcutaneously implanted in 6-week-old female HsdCpb:NMRI-Foxn1nu mice (Harlan Laboratories, Italy) Animals were supplemented with 1 μM estradiol (Sigma) in the drinking water. After tumor graft growth, tumor tissue was re-implanted into recipient mice, which were randomized upon implant growth.
0.3 to 0.4 mCi of fluorine-18-deoxyglucose were injected intravenously through the retroorbital vein of the anesthetized mouse. After a “washout” period of 1 hour the mouse was imaged on a NanoPET/CT (Bioscan/Mediso) scanner. The NanoPET/CT is a high-resolution small-animal multimodality scanner consisting of 12 lutetium yttrium oxyorthosilicate (LYSO) detector blocks. The blocks comprise a total of 39,780 crystals each with a dimension of 1.2×1.2×13 mm^3.
Images were acquired in three dimensions. The mice remained supine and maintained their position throughout the procedure. First, a CT scan was performed and second, a whole-body ^18F-FDG PET emission scan was acquired covering the same area as the CT scan. Counts per minute (cpm) were obtained, converted to mCi, and values were normalized for ROI volume and injected dose. In order to correct for metabolic variability between exams and to determine tumor-specific uptake changes, FDG-uptake rates were corrected for cardiac FDG-uptake (μCi injected/voxels^tumor)/(μCi/μCi injected/voxels^heart). For studies involving repeat scanning, the change in tumor-specific FDG-uptake was determined in percent (1−(FDG-uptake^post/FDG-uptake^pre)×100) Animals were housed in the Longwood SAIF satellite animal facility between scans.

[2] = system: patient-derived tumor with BRCA1 germline mutation 185delAG; assay: Patient-derived BRCA1 185delAG breast tumor xenograft growth; type: in vivo, human; conditions: tumor resistant to standard chemotherapy and Compound B; Compound A 30 mg/kg/day, Compound B 50 mg/kg/day
Excerpt: FIGS. 6G and 6H are graphs showing the relative tumor volume (RTV) over time of tumors from breast cancer tissues from two patients, one with a 185delAG germline mutation (6G) and the other one with a 2080delA germline mutation (6H), propagated as subcutaneous implants in nude mice. Tumors were allowed to grow to a size of 5 mm when mice were randomized to treatments with either vehicle control (squares), Compound A (upside-down triangles), Compound B (triangles), or their combination (diamonds) (n=6 for each cohort, same dosing as in 6F).
All animal experiments were conducted in accordance with IACUC-approved protocols at Beth Israel Deaconess Medical Center, Boston, and at the University of Vall d'Hebron, Barcelona, Spain. […] The floxed or wild type status of Brca1, the presence of the MMTV-Cre transgene and the p53 heterozygosity were determined by PCR. […] When tumormetrics were performed, the length and width of the tumor was determined using calipers, and the tumor volume was determined (width^2×length/2). Tumor volume was used as a measure of growth and was recorded as ratio to tumor volume at diagnosis. Tumor doubling times were calculated using the functions of the best fit curves for all data points in each treatment modality. […]

[3] = after 2 weeks of continued treatment
[4] = within 48 hours of instituting treatment

| SMILES | FDG-uptake of treated tumors [1] | median decrease in FDG-uptake [1, 3] | range of decrease in FDG-uptake [1, 3] | decrease in 18FDG-uptake, individual tumors of one mouse ([1]; within 48 hours after start, 50 mg/kg/day by gavage, four simultaneous tumors, 50 mg/kg/day) | median decrease in FDG-uptake [1, 4] | range of decrease in FDG-uptake [1, 4] | growth of patient-derived tumor (relative tumor volume) [2] |
| --- | --- | --- | --- | --- | --- | --- | --- |
| Nc1cc(C(F)(F)F)c(-c2cc(N3CCOCC3)nc(N3CCOCC3)n2)cn1 [Compound A, 5-(2,6-dimorpholinopyrimidin-4-yl)-4-(trifluoromethyl)pyridin-2-amine] | strongly reduced FDG-uptake | 54% | 45.5-70.5% | 45% and 64% (2×) and 56% | 46.7% | 38.1-92.3 | modestly attenuated |
| O=C(c1cc(Cc2n[nH]c(=O)c3ccccc23)ccc1F)N1CCN(C(=O)C2CC2)CC1 [Compound B, 4-[[3-[4-(cyclopropanecarbonyl)piperazine-1-carbonyl]-4-fluorophenyl]methyl]-2H-phthalazin-1-one, reference compound] | increased FDG-uptake |  |  |  |  |  | modestly attenuated |
